Measurements: paper PMC4125495 (DNA repair, 2014)
pIC50: −log10 of the molar value. Like-named read-outs stand apart in the source and are kept apart here.

How the values were obtained:
[1] = test system: hTDP1 cells; test: Secondary screening cell viability assay; conditions: 15 and 20 nM CPT
[2] = target: PARP1 (Gallus gallus, UniProt P26446); test: PAR ELISA assay; type: cell-based
[3] = test system: BRCA2tr/- cells; test: Cell viability assay; type: cell-based, chicken; conditions: single agent, compared with PARP1-/- and hTDP1 cells
[4] = test system: DT40 hTDP1 cells; conditions: no CPT vs CPT (Table 1)
[5] = test system: TDP1-/- cells; test: Secondary screening cell viability assay; conditions: 5 and 10 nM CPT
[6] = test system: BRCA2tr/- cells; conditions: cited from earlier work
[7] = read-out: IC50 Poly (ADP-ribose) lation, PAR ELISA

Sequence of PARP1 (P26446 whole entry): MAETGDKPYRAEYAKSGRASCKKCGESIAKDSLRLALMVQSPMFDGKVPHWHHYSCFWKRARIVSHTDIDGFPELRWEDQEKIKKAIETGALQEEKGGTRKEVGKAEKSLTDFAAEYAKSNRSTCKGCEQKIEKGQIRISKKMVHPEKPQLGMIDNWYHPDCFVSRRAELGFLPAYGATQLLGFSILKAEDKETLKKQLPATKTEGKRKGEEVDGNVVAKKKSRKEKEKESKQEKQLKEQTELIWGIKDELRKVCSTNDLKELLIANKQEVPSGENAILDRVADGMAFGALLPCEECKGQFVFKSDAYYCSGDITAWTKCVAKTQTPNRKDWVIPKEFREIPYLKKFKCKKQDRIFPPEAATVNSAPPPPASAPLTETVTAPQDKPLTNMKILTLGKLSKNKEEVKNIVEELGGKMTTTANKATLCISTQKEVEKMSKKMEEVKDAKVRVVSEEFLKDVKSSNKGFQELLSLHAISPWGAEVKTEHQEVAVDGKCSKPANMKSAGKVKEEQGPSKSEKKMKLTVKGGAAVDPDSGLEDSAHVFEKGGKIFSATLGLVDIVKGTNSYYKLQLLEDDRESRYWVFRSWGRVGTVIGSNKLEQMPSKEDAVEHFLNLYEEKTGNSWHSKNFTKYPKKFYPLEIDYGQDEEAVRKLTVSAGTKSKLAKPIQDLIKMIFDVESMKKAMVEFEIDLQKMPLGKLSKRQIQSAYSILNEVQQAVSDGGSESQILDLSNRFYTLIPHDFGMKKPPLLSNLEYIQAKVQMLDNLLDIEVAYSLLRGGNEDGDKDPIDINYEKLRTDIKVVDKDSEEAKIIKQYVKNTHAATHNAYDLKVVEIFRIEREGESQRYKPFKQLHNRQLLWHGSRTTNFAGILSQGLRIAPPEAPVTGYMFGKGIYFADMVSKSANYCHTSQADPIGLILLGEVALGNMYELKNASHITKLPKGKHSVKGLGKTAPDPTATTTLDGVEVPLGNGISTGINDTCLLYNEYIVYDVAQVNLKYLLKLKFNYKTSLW

SMILES	potentiating (synergistic) effect with CPT in hTDP1 cells [1]	pIC50 [2, 7]	cytotoxic effect in BRCA2tr/- cells [3]	fold potentiation of cytotoxicity in the presence of CPT [4] [fold]	potentiating (synergistic) effect with CPT in TDP1-/- cells [5]	cytotoxic effect in BRCA2tr/- cells [6]	pIC50 [2]
CC(=O)Nc1ccc2c(c1)[nH]c(=O)c1ccccc12 [Cpd1]	greatest potentiating effect	> 7.70	selectively cytotoxic	166	without showing any apparent potentiating effect		
O=C(Nc1cccc2c(=O)[nH][nH]c(=O)c12)c1ccc([N+](=O)[O-])cc1 [Cpd5]		5.34					
C[C@]1(c2nc3c(C(N)=O)cccc3[nH]2)CCCN1 [Veliparib, reference compound]				466	lack of synergistic effect	selectively cytotoxic	> 7.70
